According to ChEMBL document CHEMBL1201861, “Genomics of Drug Sensitity in Cancer screening data, Wellcome Trust Sanger Institute”:

Experiments:
Assay in all cases: cells
MEG-01 = assay type: functional, cell-based; conditions: Homo sapiens;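 also: growth inhibition of MEG-01 cells, read out by a cell viability assay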
Description: SANGER: Inhibition of human MEG-01 cell growth in a cell viability assay.

NCI-H2122 = assay type: functional, cell-based, Homo sapiens; conditions: Homo sapiens, NCI-H2122;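 also: growth inhibition of the cells, read out with a cell viability assay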
Description: SANGER: Inhibition of human NCI-H2122 cell growth in a cell viability assay.

ALL-PO = assay type: functional, cell-based; conditions: Homo sapiens;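 also: growth inhibition of ALL-PO cells, read out by a cell viability assay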
Description: SANGER: Inhibition of human ALL-PO cell growth in a cell viability assay.

Huh-7 = assay type: functional, cell-based, Homo sapiens; conditions: Homo sapiens, Huh-7;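 also: HuH-7 cell growth inhibition, read out with a cell viability assay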
Description: SANGER: Inhibition of human HuH-7 cell growth in a cell viability assay.

D283 Med = assay type: functional, cell-based, Homo sapiens; conditions: Homo sapiens, D283 Med
Description: SANGER: Inhibition of human D-283MED cell growth in a cell viability assay.

VA-ES-BJ = assay type: functional, cell-based, Homo sapiens; conditions: Homo sapiens, VA-ES-BJ;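 also: growth inhibition of the VA-ES-BJ cell line, read out by a cell viability assay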
Description: SANGER: Inhibition of human VA-ES-BJ cell growth in a cell viability assay.

RPMI-2650 = assay type: functional, cell-based, Homo sapiens; conditions: Homo sapiens, RPMI-2650
Description: SANGER: Inhibition of human RPMI-2650 cell growth in a cell viability assay.

GAK = assay type: functional, cell-based, Homo sapiens; conditions: Homo sapiens, GAK;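 also: cell growth inhibition read out by a cell viability assay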
Description: SANGER: Inhibition of human GAK cell growth in a cell viability assay.

CAL-120 = assay type: functional, cell-based, Homo sapiens; conditions: Homo sapiens, CAL-120;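 also: cell growth inhibition, read out as cell viability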
Description: SANGER: Inhibition of human CAL-120 cell growth in a cell viability assay.

C3A = assay type: functional, cell-based, Homo sapiens; conditions: Homo sapiens, C3A;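 also: growth inhibition of C3A human cells, quantified with a cell viability readout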
Description: SANGER: Inhibition of human C3A cell growth in a cell viability assay.

HCC2218 = assay type: functional, cell-based; conditions: Homo sapiens;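 also: cell viability assay read-out, with IC50 given as the concentration that inhibits growth of the cell line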
Description: SANGER: Inhibition of human HCC2218 cell growth in a cell viability assay.

SK-PN-DW = assay type: functional, cell-based; conditions: Homo sapiens;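 also: growth inhibition measured with a viability assay on these cells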
Description: SANGER: Inhibition of human SK-PN-DW cell growth in a cell viability assay.

MKN-1 = assay type: functional, cell-based, Homo sapiens; conditions: Homo sapiens, MKN-1;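 also: growth inhibition of human MKN1 cells, read out by a cell viability measurement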
Description: SANGER: Inhibition of human MKN1 cell growth in a cell viability assay.

LAN-6 = assay type: functional, cell-based, Homo sapiens; conditions: Homo sapiens, LAN-6;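 also: growth inhibition of LAN-6 cells, determined with a cell viability assay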
Description: SANGER: Inhibition of human LAN-6 cell growth in a cell viability assay.

639-V = assay type: functional, cell-based, Homo sapiens; conditions: Homo sapiens, 639-V;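 also: growth inhibition of 639-V cells, read out with a cell viability assay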
Description: SANGER: Inhibition of human 639-V cell growth in a cell viability assay.

EW-11 = assay type: functional, cell-based, Homo sapiens; conditions: Homo sapiens, EW-11;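 also: growth inhibition of human EW-11 cells, measured with a cell viability assay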
Description: SANGER: Inhibition of human EW-11 cell growth in a cell viability assay.

DK-MG = assay type: functional, cell-based, Homo sapiens; conditions: Homo sapiens, DK-MG;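 also: growth inhibition of DK-MG cells, read out with a cell viability assay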
Description: SANGER: Inhibition of human DK-MG cell growth in a cell viability assay.

SAOS-2 = assay type: functional, cell-based, Homo sapiens; conditions: Homo sapiens, SAOS-2;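 also: growth inhibition of human Saos-2 cells determined by a cell viability assay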
Description: SANGER: Inhibition of human Saos-2 cell growth in a cell viability assay.

MDA-MB-453 = assay type: functional, cell-based, Homo sapiens; conditions: Homo sapiens, MDA-MB-453
Description: SANGER: Inhibition of human MDA-MB-453 cell growth in a cell viability assay.

SBC-1 = assay type: functional, cell-based; conditions: Homo sapiens;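 also: cell viability assay measuring growth inhibition of the SBC-1 cell line, IC50 being the concentration that halves growth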
Description: SANGER: Inhibition of human SBC-1 cell growth in a cell viability assay.

IA-LM = assay type: functional, cell-based, Homo sapiens; conditions: Homo sapiens, IA-LM;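 also: cell viability assay measuring growth inhibition of human IA-LM cells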
Description: SANGER: Inhibition of human IA-LM cell growth in a cell viability assay.

BHT-101 = assay type: functional, cell-based, Homo sapiens; conditions: Homo sapiens, BHT-101
Description: SANGER: Inhibition of human BHT-101 cell growth in a cell viability assay.

MC-IXC = assay type: functional, cell-based, Homo sapiens; conditions: Homo sapiens, MC-IXC;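 also: growth inhibition of MC-IXC cells, read out with a cell viability assay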
Description: SANGER: Inhibition of human MC-IXC cell growth in a cell viability assay.

NCI-H2347 = assay type: functional, cell-based, Homo sapiens; conditions: Homo sapiens, NCI-H2347;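 also: growth inhibition of the cell line, read out with a cell viability assay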
Description: SANGER: Inhibition of human NCI-H2347 cell growth in a cell viability assay.

OVCAR-5 = assay type: functional, cell-based, Homo sapiens; conditions: Homo sapiens, OVCAR-5;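 also: growth inhibition of human OVCAR-5 cells, read out with a cell viability assay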
Description: SANGER: Inhibition of human OVCAR-5 cell growth in a cell viability assay.

CAL-51 = assay type: functional, cell-based, Homo sapiens; conditions: Homo sapiens, CAL-51;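 also: human CAL-51 cell line, growth inhibition read out via a cell viability assay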
Description: SANGER: Inhibition of human CAL-51 cell growth in a cell viability assay.

NCI-H1437 = assay type: functional, cell-based, Homo sapiens; conditions: Homo sapiens, NCI-H1437;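 also: growth inhibition of human NCI-H1437 cells, read out by a cell viability assay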
Description: SANGER: Inhibition of human NCI-H1437 cell growth in a cell viability assay.

HCC1954 = assay type: functional, cell-based, Homo sapiens; conditions: Homo sapiens, HCC1954;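 also: growth inhibition of human HCC1954 cells, read out with a cell viability assay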
Description: SANGER: Inhibition of human HCC1954 cell growth in a cell viability assay.

MFH-ino = assay type: functional, cell-based; conditions: Homo sapiens;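 also: growth inhibition of human MFH-ino cells, read out by a cell viability assay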
Description: SANGER: Inhibition of human MFH-ino cell growth in a cell viability assay.

SN12C = assay type: functional, cell-based, Homo sapiens; conditions: Homo sapiens, SN12C;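 also: growth inhibition of human SN12C cells, measured by a cell viability assay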
Description: SANGER: Inhibition of human SN12C cell growth in a cell viability assay.

A4-Fuk = assay type: functional, cell-based; conditions: Homo sapiens;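 also: growth inhibition of A4-Fuk cells, read out by a cell viability assay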
Description: SANGER: Inhibition of human A4-Fuk cell growth in a cell viability assay.

SNU-449 = assay type: functional, cell-based, Homo sapiens; conditions: Homo sapiens, SNU-449
Description: SANGER: Inhibition of human SNU-449 cell growth in a cell viability assay.

SF-268 = assay type: functional, cell-based, Homo sapiens; conditions: Homo sapiens, SF-268;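 also: growth inhibition of SF-268 cells determined with a cell viability assay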
Description: SANGER: Inhibition of human SF268 cell growth in a cell viability assay.

NY = assay type: functional, cell-based, Homo sapiens; conditions: Homo sapiens, NY
Description: SANGER: Inhibition of human NY cell growth in a cell viability assay.

SK-LMS-1 = assay type: functional, cell-based, Homo sapiens; conditions: Homo sapiens, SK-LMS-1;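 also: growth inhibition of human SK-LMS-1 cells, read out with a cell viability assay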
Description: SANGER: Inhibition of human SK-LMS-1 cell growth in a cell viability assay.

KLE = assay type: functional, cell-based, Homo sapiens; conditions: Homo sapiens, KLE;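 also: growth inhibition of human KLE cells, read out with a cell viability assay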
Description: SANGER: Inhibition of human KLE cell growth in a cell viability assay.

A388 = assay type: functional, cell-based, Homo sapiens; conditions: Homo sapiens, A388;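 also: growth inhibition of human A388 cells, read out with a cell viability assay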
Description: SANGER: Inhibition of human A388 cell growth in a cell viability assay.

KE-37 = assay type: functional, cell-based; conditions: Homo sapiens;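 also: growth inhibition of KE-37 cells, read out with a cell viability assay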
Description: SANGER: Inhibition of human KE-37 cell growth in a cell viability assay.

AN3-CA = assay type: functional, cell-based; conditions: Homo sapiens;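 also: growth inhibition of human AN3-CA cells measured by a cell viability assay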
Description: SANGER: Inhibition of human AN3-CA cell growth in a cell viability assay.

WM-115 = assay type: functional, cell-based, Homo sapiens; conditions: Homo sapiens, WM-115
Description: SANGER: Inhibition of human WM-115 cell growth in a cell viability assay.

RD = assay type: functional, cell-based, Homo sapiens; conditions: Homo sapiens, RD
Description: SANGER: Inhibition of human RD cell growth in a cell viability assay.

EW-3 = assay type: functional, cell-based; conditions: Homo sapiens;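 also: cell viability assay read-out, IC50 reflects inhibition of growth of the EW-3 cells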
Description: SANGER: Inhibition of human EW-3 cell growth in a cell viability assay.

IST-SL1 = assay type: functional, cell-based, Homo sapiens; conditions: Homo sapiens, IST-SL1;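 also: growth inhibition of human IST-SL1 cells, read out with a cell viability assay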
Description: SANGER: Inhibition of human IST-SL1 cell growth in a cell viability assay.

5637 = assay type: functional, cell-based, Homo sapiens; conditions: Homo sapiens
Description: SANGER: Inhibition of human 5637 cell growth in a cell viability assay.

COLO-800 = assay type: functional, cell-based, Homo sapiens; conditions: Homo sapiens, COLO-800;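 also: growth inhibition of COLO-800 cells, read out with a cell viability assay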
Description: SANGER: Inhibition of human COLO-800 cell growth in a cell viability assay.

ES6 = assay type: functional, cell-based, Homo sapiens; conditions: Homo sapiens, ES6;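 also: growth inhibition of human ES6 cells, read out with a cell viability assay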
Description: SANGER: Inhibition of human ES6 cell growth in a cell viability assay.

HCC1937 = assay type: functional, cell-based, Homo sapiens; conditions: Homo sapiens, HCC1937;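 also: growth inhibition measured with a cell viability read-out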
Description: SANGER: Inhibition of human HCC1937 cell growth in a cell viability assay.

SW982 = assay type: functional, cell-based; conditions: Homo sapiens;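 also: growth inhibition of SW982 cells, read out with a cell viability assay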
Description: SANGER: Inhibition of human SW982 cell growth in a cell viability assay.

KS-1 = assay type: functional, cell-based, Homo sapiens; conditions: Homo sapiens, KS-1;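 also: growth inhibition of KS-1 cells, read out with a cell viability assay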
Description: SANGER: Inhibition of human KS-1 cell growth in a cell viability assay.

LS-123 = assay type: functional, cell-based, Homo sapiens; conditions: Homo sapiens, LS-123
Description: SANGER: Inhibition of human LS-123 cell growth in a cell viability assay.

CAMA-1 = assay type: functional, cell-based, Homo sapiens; conditions: Homo sapiens, CAMA-1;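 also: growth inhibition of CAMA-1 cells, read out with a cell viability assay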
Description: SANGER: Inhibition of human CAMA-1 cell growth in a cell viability assay.

NCI-H1581 = assay type: functional, cell-based, Homo sapiens; conditions: Homo sapiens, NCI-H1581;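 also: cell growth inhibition read out by a viability assay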
Description: SANGER: Inhibition of human NCI-H1581 cell growth in a cell viability assay.

With `Cc1cnc(-c2cnc(NCCNc3ccc(C#N)cn3)nc2-c2ccc(Cl)cc2Cl)[nH]1` [LADUVIGLUSIB] the IC50 (MEG-01) was over 2.56 µM, the IC50 (NCI-H2122) was 2.28 µM and the IC50 (ALL-PO) was over 2.56 µM. For the same compound, the IC50 (Huh-7) was over 2.56 µM, the IC50 (D283 Med) was over 2.56 µM and the IC50 (VA-ES-BJ) was over 2.56 µM. It also gave an IC50 (RPMI-2650) of over 2.56 µM, an IC50 (GAK) of over 2.56 µM and an IC50 (CAL-120) of over 2.56 µM. The IC50 (C3A) was over 2.56 µM, the IC50 (HCC2218) was over 2.56 µM and the IC50 (SK-PN-DW) was over 2.56 µM. For the same compound, the IC50 (MKN-1) was over 2.56 µM, the IC50 (LAN-6) was over 2.56 µM and the IC50 (639-V) was over 2.56 µM. It also gave an IC50 (EW-11) of over 2.56 µM, an IC50 (DK-MG) of over 2.56 µM and an IC50 (SAOS-2) of over 2.56 µM. The IC50 (MDA-MB-453) was over 2.56 µM, the IC50 (SBC-1) was over 2.56 µM and the IC50 (IA-LM) was over 2.56 µM. The IC50 (BHT-101) was over 2.56 µM, the IC50 (MC-IXC) was over 2.56 µM and the IC50 (NCI-H2347) was over 2.56 µM. It also gave an IC50 (OVCAR-5) of over 2.56 µM, an IC50 (CAL-51) of over 2.56 µM and an IC50 (NCI-H1437) of over 2.56 µM. It also gave an IC50 (HCC1954) of over 2.56 µM, an IC50 (MFH-ino) of over 2.56 µM and an IC50 (SN12C) of over 2.56 µM. For the same compound, the IC50 (A4-Fuk) was over 2.56 µM, the IC50 (SNU-449) was over 2.56 µM and the IC50 (SF-268) was over 2.56 µM. The IC50 (NY) was over 2.56 µM, the IC50 (SK-LMS-1) was over 2.56 µM and the IC50 (KLE) was over 2.56 µM. It also gave an IC50 (A388) of over 2.56 µM, an IC50 (KE-37) of over 2.56 µM and an IC50 (AN3-CA) of over 2.56 µM. It also gave an IC50 (WM-115) of over 2.56 µM, an IC50 (RD) of over 2.56 µM and an IC50 (EW-3) of over 2.56 µM. For the same compound, the IC50 (IST-SL1) was over 2.56 µM, the IC50 5637 was over 2.56 µM and the IC50 (COLO-800) was over 2.56 µM. It also gave an IC50 (ES6) of over 2.56 µM, an IC50 (HCC1937) of over 2.56 µM and an IC50 (SW982) of 0.214 µM. The IC50 (KS-1) was over 2.56 µM, the IC50 (LS-123) was over 2.56 µM and the IC50 (CAMA-1) was over 2.56 µM. It also gave an IC50 (NCI-H1581) of over 2.56 µM.

`C[C@]1(O)C[C@@H](c2nc(-c3ccc4ccc(-c5ccccc5)nc4c3)c3c(N)nccn32)C1` [LINSITINIB] showed an IC50 (MEG-01) of over 2.56 µM, an IC50 (NCI-H2122) of 0.233 µM and an IC50 (ALL-PO) of over 2.56 µM. The IC50 (Huh-7) was 1.6 µM, the IC50 (D283 Med) was over 2.56 µM and the IC50 (VA-ES-BJ) was over 2.56 µM. For the same compound, the IC50 (RPMI-2650) was over 2.56 µM, the IC50 (GAK) was over 2.56 µM and the IC50 (CAL-120) was over 2.56 µM. For the same compound, the IC50 (C3A) was over 2.56 µM, the IC50 (HCC2218) was over 2.56 µM and the IC50 (SK-PN-DW) was 1.91 µM. For the same compound, the IC50 (MKN-1) was over 2.56 µM, the IC50 (LAN-6) was 0.263 µM and the IC50 (639-V) was over 2.56 µM. The IC50 (EW-11) was 0.284 µM, the IC50 (DK-MG) was over 2.56 µM and the IC50 (SAOS-2) was 0.165 µM. For the same compound, the IC50 (MDA-MB-453) was over 2.56 µM, the IC50 (SBC-1) was over 2.56 µM and the IC50 (IA-LM) was over 2.56 µM. For the same compound, the IC50 (BHT-101) was over 2.56 µM, the IC50 (MC-IXC) was 1.99 µM and the IC50 (NCI-H2347) was over 2.56 µM. It also gave an IC50 (OVCAR-5) of over 2.56 µM, an IC50 (CAL-51) of over 2.56 µM and an IC50 (NCI-H1437) of over 2.56 µM. For the same compound, the IC50 (HCC1954) was over 2.56 µM, the IC50 (MFH-ino) was over 2.56 µM and the IC50 (SN12C) was over 2.56 µM. The IC50 (A4-Fuk) was 0.0281 µM, the IC50 (SNU-449) was over 2.56 µM and the IC50 (SF-268) was over 2.56 µM. The IC50 (NY) was over 2.56 µM, the IC50 (SK-LMS-1) was over 2.56 µM and the IC50 (KLE) was over 2.56 µM. It also gave an IC50 (A388) of over 2.56 µM, an IC50 (KE-37) of over 2.56 µM and an IC50 (AN3-CA) of over 2.56 µM. For the same compound, the IC50 (WM-115) was over 2.56 µM, the IC50 (RD) was 1.26 µM and the IC50 (EW-3) was 2.1 µM. For the same compound, the IC50 (IST-SL1) was over 2.56 µM, the IC50 5637 was over 2.56 µM and the IC50 (COLO-800) was over 2.56 µM. It also gave an IC50 (ES6) of 0.911 µM, an IC50 (HCC1937) of over 2.56 µM and an IC50 (SW982) of over 2.56 µM. For the same compound, the IC50 (KS-1) was 0.0384 µM, the IC50 (LS-123) was over 2.56 µM and the IC50 (CAMA-1) was over 2.56 µM. The IC50 (NCI-H1581) was over 2.56 µM.
